Measurements published in the supplement of paper PMC11451515.

Assays:
Settings in all cases: 48 h
[1] = tested on: SEM cells; assay: cell viability relative to DMSO control; higher = less cytotoxic
Method in brief: (§1)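 Viability was expressed as a per-plate percentage of DMSO wells, with cell-free wells as background. Leukemia cells (NOMO1 or SEM at 500 cells/well, P12-Ichikawa at 1000 cells/well) were adapted for at least four passages in each medium and seeded in 1536-well plates (5 μl). Library compounds in DMSO were pin-dosed over an 11-point threefold series from 47 μM to 0.79 nM, and CellTiter-Glo One luminescence was read after 48 h at 37°C.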

[2] = tested on: P12-Ichikawa; assay: as above
Method in brief: as §1

[3] = tested on: NOMO1; assay: as above
Method in brief: as §1

[4] = tested on: P12-Ichikawa; assay: AUC of viability dose-response curve (% viability x log10 dose units); higher = less sensitive
Method in brief: (§2)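 Area under the curve was integrated by trapezoidal rule from a log-logistic fit of normalised viability, with curves exceeding full viability scaled and quality-control failures removed. The fit had four parameters over log10 doses. Viability came from CellTiter-Glo One luminescence, normalised per plate to DMSO and cell-free wells, after leukemia cells adapted to each medium (500 or 1000 cells/well, 1536-well plates) were exposed to library compounds in DMSO for 48 h at 37°C. The 11 threefold doses ran from 47 μM to 0.79 nM.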

[5] = tested on: NOMO1; assay: as above
Method in brief: as §2

NNC(=O)c1ccncc1
cell viability [%]
Settings	[1]	[2]	[3]
HPLM + 10% dialyzed FBS, 0.000781 µM	84.6	111	90.3
HPLM + 10% dialyzed FBS, 0.00234 µM	79.5	124	99.2
HPLM + 10% dialyzed FBS, 0.00702 µM	73.6	119	117
HPLM + 10% dialyzed FBS, 0.0211 µM	92.9	121	123
HPLM + 10% dialyzed FBS, 0.0632 µM	93.8	121	121
HPLM + 10% dialyzed FBS, 0.19 µM	86.6	127	124
HPLM + 10% dialyzed FBS, 0.569 µM	29.2	127	125
HPLM + 10% dialyzed FBS, 1.71 µM	42.5	117	123
HPLM + 10% dialyzed FBS, 5.12 µM	95.7	101	137
HPLM + 10% dialyzed FBS, 15.4 µM	92.3	103	131
HPLM + 10% dialyzed FBS, 46.1 µM	82.4	85.7	123
RPMI 5 mM glucose + 10% FBS, 0.000781 µM	107	106	108
RPMI 5 mM glucose + 10% FBS, 0.00234 µM	98.6	107	111
RPMI 5 mM glucose + 10% FBS, 0.00702 µM	97.2	111	114
RPMI 5 mM glucose + 10% FBS, 0.0211 µM	98.7	124	109
RPMI 5 mM glucose + 10% FBS, 0.0632 µM	116	111	122
RPMI 5 mM glucose + 10% FBS, 0.19 µM	115	114	135
RPMI 5 mM glucose + 10% FBS, 0.569 µM	37.3	122	123
RPMI 5 mM glucose + 10% FBS, 1.71 µM	46.7	120	115
RPMI 5 mM glucose + 10% FBS, 5.12 µM	91.6	116	128
RPMI 5 mM glucose + 10% FBS, 15.4 µM	94.9	107	119
RPMI 5 mM glucose + 10% FBS, 46.1 µM	87.6	84.7	130
RPMI 5 mM glucose + 10% dialyzed FBS, 0.000781 µM	107	115	120
RPMI 5 mM glucose + 10% dialyzed FBS, 0.00234 µM	110	122	117
RPMI 5 mM glucose + 10% dialyzed FBS, 0.00702 µM	92.4	113	110
RPMI 5 mM glucose + 10% dialyzed FBS, 0.0211 µM	97.2	119	117
RPMI 5 mM glucose + 10% dialyzed FBS, 0.0632 µM	98.1	116	119
RPMI 5 mM glucose + 10% dialyzed FBS, 0.19 µM	105	127	118
RPMI 5 mM glucose + 10% dialyzed FBS, 0.569 µM	37.2	118	119
RPMI 5 mM glucose + 10% dialyzed FBS, 1.71 µM	34.9	121	126
RPMI 5 mM glucose + 10% dialyzed FBS, 5.12 µM	101	103	124
RPMI 5 mM glucose + 10% dialyzed FBS, 15.4 µM	95.6	108	126
RPMI 5 mM glucose + 10% dialyzed FBS, 46.1 µM	82.8	76.2	125

AUC of viability dose-response curve
Settings	HPLM + 10% dialyzed FBS	RPMI 5 mM glucose + 10% FBS	RPMI 5 mM glucose + 10% dialyzed FBS
[4]	453	468	460
[5]	454	444	456
